The text below walks through data of article PMC10518255, “A first-in-class pan-lysyl oxidase inhibitor impairs stromal remodeling and enhances gemcitabine response and survival in pancreatic cancer” (Nature Cancer, 2023).

SMILES strings stand for the structures. “And” between values parts separate entries of the source, which are not always exact repeats. Equal entries are not always repeated.

The nature of one series: Plasma protein binding. It counts as in vitro ADME. To be noted: In vitro (human), read-out: Plasma protein binding, % bound (converted).
Another series has as its system cytochrome P450 enzymes. Kind of series: Cytochrome P450 inhibition.
Series [1] is described as follows: Tissue concentration by LC-MS/MS after single oral dose of 30 mg/kg (plasma, kidney, liver, lung, heart, ear; Extended Data Fig. 3e). On the procedure: PXS-5505 concentration, as measured by LC–MS/MS, in rat plasma, kidney, liver, lung, heart and ear samples following a single oral dose of 30 mg/kg (n = 3 independent animals). Data presented as mean values +/− SD. f. Plasma concentration profile over time in mice following oral administration of PXS-5505 (30 mg/kg) (n = 3 independent animals) g. Schematic of amplex red coupled fluorometric lysyl oxidase family activity assay whereby putrescine (put) is used as a substrate resulting in the release of H2O2 and its subsequent catalysis by horseradish peroxidase (HRP) to […] amplex red to resorufin resulting in a fluorescently detectable signal. […] Data presented as mean values +/− SD. h. qRT-PCR showing in vitro 48 hour treatment of KPC CAFs or cancer cells with 30 μM PXS-5505 or vehicle control (n = 3 biological repeats with 3 technical replicates per biological repeat). Data presented as mean values +/− SD. Relative fold expression of lysyl oxidase family members from PXS-5505 treated samples compared to control were determined by the 2^–∆∆Ct approach. p-values determined by unpaired, nonparametric t-test with a Mann–Whitney U correction (comparison between two groups). i. 2D in vitro cell viability assay (MTS assay) for KPC CAFs and CCs (n = 3 biological repeats with 3 technical replicates per biological repeat) in response to PXS-5505. Data presented as mean values +/− SD. Ordinary one-way ANOVA for multiple comparison test performed. j. 3D in vitro cell viability assay (MTS assay) for KPC CAFs and CCs (n = 3 biological repeats with 3 technical replicates per biological repeat) in response to PXS-5505. Data presented as mean values +/− SD. Ordinary one-way ANOVA for multiple comparison test performed. Source data

Series [2] relates to KPC CAF remodeled 3D collagen matrices. As to the kind of experiment: Matrix stiffness by unconfined compression testing of organotypic matrices. The format is cell-based, mouse. Conditions: day 12, PXS-5505 30 µM, normalized to control, individual samples. As for the experimental part:
Fig. 3 PXS-5505 inhibition of CAF remodeling in vitro. a, Quantitative PCR with reverse transcription (qRT–PCR) showing in vitro comparison of KPC CAF relative expression of lysyl oxidase family members compared to KPC CCs from the same model (n = 3 biologically independent samples). Comparisons were determined by 2^–∆∆Ct approach. b, Representative images of 3D organotypic matrix contraction assay at days 2, 6 and 12 in the absence (gray) or presence (pink) of PXS-5505 (30 µM). Scale bars, 5 mm. Comparison of measured area of matrices between control and PXS-5505 treatment groups over time (n = 3 technical samples examined over three biologically independent samples). Data are mean ± s.d. c, Concentration of immature divalent DHLNL and mature trivalent Pyr collagen crosslinks determined by LC–MS from control and PXS-5505-treated organotypic matrices at day 12 (n = 3 technical samples examined over two biologically independent samples). Data are mean ± s.d. […] Data are presented as mean ± s.d. […] Comparison of number of CCs invaded per field of view (FOV) as determined by H&E and PanCK staining (nine images taken from three technical samples from each of three biologically independent contracted matrices), normalized to control. Data are mean ± s.d. Scale bars, 100 μm. […] Source data […]

The nature of another series: Plasma stability. The format is in vitro ADME. Conditions: In vitro (human).
[3] abbreviates: rat, single oral dose 30 mg/kg, 1 hr, n = 3.

As for `Cl.Cl.NC/C=C(\F)CS(=O)(=O)c1cccc2cccnc12.O` [PXS-5505, (Z)-3-fluoro-4-(quinolin-8-ylsulfonyl)but-2-en-1-amine dihydrochloride monohydrate], in “Plasma protein binding”, the fraction unbound is 0.78. For the same molecule, the “inhibition of cytochrome P450 enzymes” value in the series with cytochrome P450 enzymes is recorded as “does not inhibit”. Also, the tissue penetration result in series [1] (after oral administration) was “penetrates core and peripheral matrix-rich tissues (the ear pinnae) well”. For the same molecule, in series [1] (setting [3]), the “PXS-5505 concentration by LC-MS/MS, ear, Mean” value came out at 1911.2; the “PXS-5505 concentration by LC-MS/MS, heart, Mean” value is 5777.3; the “PXS-5505 concentration by LC-MS/MS, kidney, Mean” value is reported as 19237.2; the “PXS-5505 concentration by LC-MS/MS, liver, Mean” value is 32467.6. In series [1] (setting [3]), the “PXS-5505 concentration by LC-MS/MS, lung, Mean” value was 954.9 and the “PXS-5505 concentration by LC-MS/MS, plasma, Mean” value was determined as 3609.6. Besides, the “matrix stiffness by unconfined compression testing” value in series [2] was 0.918 and 0.779 and 0.916 and 0.962 and 0.835 and 0.748 and 0.939 and 0.975. In addition, in “Plasma stability”, the amount remaining (in general, what is left of the initial amount, in per cent) at 1 h is 97%.
